One experiment concerns BCG pTIC6-fbpC. In kind it is cell-based, Mycobacterium bovis BCG.
A further experiment has as its system BCG pTIC6-fbpA. Format: cell-based, Mycobacterium bovis BCG.
For the next experiment, the system named is BCG pTIC6-fbpB. Format: cell-based, Mycobacterium bovis BCG.
Another experiment has as its system M. tuberculosis H37Rv. Put plainly: Mycobacterial time kill experiments (total viable counts). In kind it is cell-based, Mycobacterium tuberculosis. Particulars: 29 μM, by day 10, to limit of detection (100 CFU mL^–1).
For another experiment, the system named is M. smegmatis. Put plainly: MIC determination, resazurin end point assay, M. smegmatis. In kind it is cell-based, Mycobacterium smegmatis. A general note: The colour change of resazurin is a common sign of viable cells or microbes.
For the next experiment, the system named is M. bovis BCG. Put plainly: microbe, parasite or virus in culture. Format: cell-based, Mycobacterium bovis BCG.

Some results are limits rather than exact numbers.

`O=c1c2ccccc2[se]n1-c1ccccc1` [Ebselen, reference compound]: in the experiment with BCG pTIC6-fbpC, the BCG pTIC6-fbpC MIC amounted to 98 µM and the “increase in MIC upon overexpression of FbpC” value is recorded as “three-fold increase”. In the experiment with BCG pTIC6-fbpA, the BCG pTIC6-fbpA MIC was determined as 28 µM and the “shift in MIC upon overexpression of FbpA” value is “No shift in MIC”. In the experiment on BCG pTIC6-fbpB, the BCG pTIC6-fbpB MIC came to 90 µM and the “increase in MIC upon overexpression of FbpB” value was “three-fold increase”.

For the compound `NNC(=O)c1ccncc1` [Isoniazid, reference compound], the “reduction of total viable count” value with M. tuberculosis H37Rv is reported as above 4.52 ± 0.60 log10 CFU mL^–1.

As for “(rac)-1-(((2,4-cis)-1-(2-bromobenzyl)-4-phenylazetidin-2-yl)methyl)-4-(4-(trifluoromethyl)phenyl)piperidine [BGAz-016]”, the MIC99 in the experiment on M. smegmatis (resazurin end point assay, modified Gompertz function, three biological replicates, read-out: M. smeg. MIC99) amounted to 100 µM. In addition, in the experiment on M. smegmatis (supplementary MIC data file), the MIC50 smegmatis is 34 µM and the MIC99 smegmatis was above 100 µM. Besides, the “BCG MIC99” value in the experiment with M. bovis BCG (resazurin end point assay, modified Gompertz function, three biological replicates) was determined as 60 µM. For the same compound, in the experiment on M. bovis BCG (supplementary MIC data file), the “MIC50 BCG” value stood at 48 µM and the “MIC99 BCG” value worked out at 60 µM.

Broadly, the MIC99 is the lowest concentration that inhibits either 99% of growth or 99% of the strains tested, depending on the study.
